The test system of one assay is Staphylococcus. Conditions: at the concentration tested; cited from earlier work.
The test system of another assay is Enterococcus faecium. Conditions: at the concentration tested; cited from earlier work.
Another assay deals with Acinetobacter baumannii. The conditions noted are these: cited from earlier work.
In assay [1] the test system is Bacillus cereus (MTCC2128). Kind of assay: Agar well diffusion antibacterial activity. The assay is classed as cell-based. The conditions noted are these: for inhibitory activity against Bacillus cereus (in words): 1 mg mL^−1; for Zone of inhibition, Bacillus cereus: 100 μl, compound 1 mg mL^−1, radius of inhibition zone.
Assay [2] deals with Escherichia coli (MTCC2412). Kind of assay: Agar well diffusion antibacterial activity. The format is cell-based. The conditions noted are these: for Zone of inhibition, Escherichia coli: compound 1 mg mL^−1, radius of inhibition zone.

On to `CC(C)=CCCC1(C)C(CC=C(C)C)CC23CCC(C)(C)OC2=C(C(=O)c2ccc(O)c(O)c2)C(=O)C1(CC=C(C)C)C3=O` (centres unmarked) [schomburgkianone I], for which, in the assay on Staphylococcus, the “inhibitory effect on Staphylococcus (in words)” value was “exhibited inhibitory effects”. Besides, in the assay on Enterococcus faecium, the “inhibitory effect on Enterococcus faecium (in words)” value is “exhibited inhibitory effects”. The “activity against Acinetobacter baumannii (in words)” value in the assay on Acinetobacter baumannii is “no activity”.
As for `Nc1ncnc2c1c(I)nn2C=C1CC1(CO)CO` [10b (E&Z), (2-((4-amino-3-iodo-1H-pyrazolo[3,4-d]pyrimidin-1-yl)methylene)cyclopropane-1,1-diyl)dimethanol], the “inhibitory activity against Bacillus cereus (in words)” value (shortened to “inhibitory activity”) in assay [1] is listed as “showed inhibitory activity”. The “Zone of inhibition, Bacillus cereus” value in assay [1] (listed as 10b) was determined as 1.4 ± 0.1 mm.
For `Nc1ncnc2c1cnn2C=C1CC1(CO)CO` [10a (Z-Isomer), (2-((4-amino-1H-pyrazolo[3,4-d]pyrimidin-1-yl)methylene)cyclopropane-1,1-diyl) dimethanol], the “Zone of inhibition, Escherichia coli” value in assay [2] (75 μl) is 0.9 ± 0.05 mm; in assay [2] (100 μl), 1.2 ± 0.15 mm.
Consider `Nc1ncnc2c1cnn2C=C1CC1(CO)CO` [10a (E-Isomer), (2-((4-amino-1H-pyrazolo[3,4-d]pyrimidin-1-yl)methylene)cyclopropane-1,1-diyl) dimethanol], for which, in assay [1], the “inhibitory activity” value was “showed inhibitory activity”. Besides, the “zone of inhibition against Escherichia coli (in words)” value in assay [2] (1 mg mL^−1) is “zone of inhibition was observed”. Further, the “Zone of inhibition, Escherichia coli” value in assay [2] (75 μl) is 0.9 ± 0.05 mm.
For the molecule `Nc1ncnc2c1c(I)nn2C=C1CC1(CO)CO` [10b (Z-Isomer), (2-((4-amino-3-iodo-1H-pyrazolo[3,4-d]pyrimidin-1-yl)methylene)cyclopropane-1,1-diyl)dimethanol], the “Zone of inhibition, Bacillus cereus” value in assay [1] was found to be 2.2 ± 0.25 mm.
`Nc1ncnc2c1c(-c1ccc(Oc3ccccc3)cc1)nn2C=C1CC1(CO)CO` [10c (E&Z), (2-((4-amino-3-(4-phenoxyphenyl)-1H-pyrazolo[3,4-d]pyrimidin-1-yl)methylene)cyclopropane-1,1-diyl) dimethanol]: the “inhibitory activity” value in assay [1] was “showed inhibitory activity”.
As to `Nc1ncnc2c1cnn2C=C1CC1(CO)CO` [10a (E&Z), (2-((4-amino-1H-pyrazolo[3,4-d]pyrimidin-1-yl)methylene)cyclopropane-1,1-diyl) dimethanol], in assay [1] (listed as 10a), the “Zone of inhibition, Bacillus cereus” value is listed as 2.2 ± 0.25 mm. Also, the “Zone of inhibition, Escherichia coli” value in assay [2] (100 μl, listed as 10a) was determined as 1.2 ± 0.15 mm.

The values above are taken from PMC10955399 (RSC Advances, 2024).
